In ChEMBL document CHEMBL1123679, “5-Quinone derivatives of 2'-deoxyuridine 5'-phosphate: inhibition and inactivation of thymidylate synthase, antitumor cell, and antiviral studies” (J Med Chem, 1987):
In brackets after ≈: the same amount, converted by molar mass.

How the values were obtained:
L1210 = experiment: Ability to inhibit the proliferation or tumor cell growth by 50% of the murine leukemia L1210 cells was determined; assay type: functional; conditions: Mus musculus, read-out: ID50 (the source's name)
Oryctolagus cuniculus [1] = organism: Oryctolagus cuniculus; experiment: Minimal inhibitory concentration required to cause a microscopically detectable alteration of normal cell morphology of rabbit kidney cell cultures; assay type: functional
Raji [2] = experiment: Inhibition of human B-cell lymphoblast Raji cell proliferation; assay type: functional; conditions: read-out: ID50 (the source's name)
Oryctolagus cuniculus [3] = organism: Oryctolagus cuniculus; experiment: Minimal inhibitory concentration against vesicular stomatitis virus-induced cytopathogenicity by 50% in rabbit kidney cell cultures; assay type: functional
[4] = Ability to inhibit the proliferation or tumor cell growth by 50% of the human T-cell lymphoblast (Molt/4F) cells was determined; assay type: functional; conditions: read-out: ID50 (the source's name)
Oryctolagus cuniculus [5] = organism: Oryctolagus cuniculus; experiment: Minimal inhibitory concentration against HSV-2 (G)-induced cytopathogenicity by 50% in rabbit kidney cell cultures; assay type: functional
Oryctolagus cuniculus [6] = organism: Oryctolagus cuniculus; experiment: Minimal inhibitory concentration against HSV-1 (F)-induced cytopathogenicity by 50% in rabbit kidney cell cultures; assay type: functional
Oryctolagus cuniculus [7] = organism: Oryctolagus cuniculus; experiment: Minimal inhibitory concentration against vaccinia virus-induced cytopathogenicity by 50% in rabbit kidney cell cultures; assay type: functional
Oryctolagus cuniculus [8] = organism: Oryctolagus cuniculus; experiment: Minimal inhibitory concentration against HSV-1 (KOS)-induced cytopathogenicity by 50% in rabbit kidney cell cultures; assay type: functional
Oryctolagus cuniculus [9] = organism: Oryctolagus cuniculus; experiment: Minimal inhibitory concentration against HSV-1 (McIntyre)-induced cytopathogenicity by 50% in rabbit kidney cell cultures; assay type: functional
Oryctolagus cuniculus [10] = organism: Oryctolagus cuniculus; experiment: Minimal inhibitory concentration against HSV-2 (Lyons)-induced cytopathogenicity by 50% in rabbit kidney cell cultures; assay type: functional
Oryctolagus cuniculus [11] = organism: Oryctolagus cuniculus; experiment: Minimal inhibitory concentration against HSV-2 (196)-induced cytopathogenicity by 50% in rabbit kidney cell cultures; assay type: functional
Raji [12] = experiment: Inhibition of human B-cell lymphoblast Raji cell proliferation; Value ranges from (10-55.6); assay type: functional; conditions: read-out: ID50 (the source's name)
Thymidylate synthase [13] = molecular target: Thymidylate synthase (Mus musculus, UniProt P07607); experiment: Ability to inhibit the thymidylate synthase from murine leukemia L1210 cells was determined and expressed as inhibition constant(Ki); assay type: cell-based
Thymidylate synthase (Mus musculus, UniProt P07607), sequence (P07607 whole entry): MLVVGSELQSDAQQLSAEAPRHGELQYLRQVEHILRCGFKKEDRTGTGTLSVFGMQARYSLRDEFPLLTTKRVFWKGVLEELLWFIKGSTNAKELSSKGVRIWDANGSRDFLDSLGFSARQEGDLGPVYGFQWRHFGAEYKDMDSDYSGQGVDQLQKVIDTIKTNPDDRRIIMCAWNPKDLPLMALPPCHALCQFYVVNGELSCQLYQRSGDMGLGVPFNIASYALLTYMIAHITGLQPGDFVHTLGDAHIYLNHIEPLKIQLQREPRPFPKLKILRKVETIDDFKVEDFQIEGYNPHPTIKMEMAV

Thymidylate synthase [14] = molecular target: T1, Thymidylate synthase (Lactobacillus casei, UniProt P00469); experiment: Ability to inhibit the thymidylate synthase from Lactobacillus casei was determined and expressed as inhibition constant(Ki); design: species or system Lacticaseibacillus casei
T1 sequence (P00469 whole entry): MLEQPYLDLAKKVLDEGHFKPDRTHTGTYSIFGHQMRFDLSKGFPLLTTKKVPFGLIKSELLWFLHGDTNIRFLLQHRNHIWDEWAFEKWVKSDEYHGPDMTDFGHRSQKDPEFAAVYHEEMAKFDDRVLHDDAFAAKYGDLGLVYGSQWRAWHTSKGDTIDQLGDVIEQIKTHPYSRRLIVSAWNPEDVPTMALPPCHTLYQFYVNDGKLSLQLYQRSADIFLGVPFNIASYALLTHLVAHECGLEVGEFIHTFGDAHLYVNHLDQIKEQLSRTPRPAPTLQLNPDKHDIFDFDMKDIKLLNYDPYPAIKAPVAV

Thymidylate synthase [15] = molecular target: T1, Thymidylate synthase; experiment: Ability to inhibit the thymidylate synthase from Lactobacillus casei was determined and expressed as inhibition constant (Ki); design: species or system Lacticaseibacillus casei
Oryctolagus cuniculus [16] = organism: Oryctolagus cuniculus; experiment: Minimal inhibitory concentration required to cause a microscopically detectable alteration of normal cell morphology of rabbit kidney cell culture; assay type: functional

| Compound | IC50 (L1210) | IC50 (Raji [2]) | MIC (Oryctolagus cuniculus [3]) | IC50 [4] | MIC (Oryctolagus cuniculus [5]) | MIC (Oryctolagus cuniculus [6]) | MIC (Oryctolagus cuniculus [7]) | MIC (Oryctolagus cuniculus [8]) | MIC (Oryctolagus cuniculus [9]) | MIC (Oryctolagus cuniculus [10]) | MIC (Oryctolagus cuniculus [11]) | Ki (Thymidylate synthase [14]) | other results |
| --- | --- | --- | --- | --- | --- | --- | --- | --- | --- | --- | --- | --- | --- |
| O=c1[nH]c(=O)n([C@H]2C[C@H](O)[C@@H](CO)O2)cc1[N+](=O)[O-] | 0.003 µg/mL (≈ 0.011 µM) | – | – | – | – | – | – | – | – | – | – | – | – |
| CC1=C(c2cn([C@H]3C[C@H](O)[C@@H](CO)O3)c(=O)[nH]c2=O)C(=O)c2ccccc2C1=O | 27.4 µg/mL (≈ 68.8 µM) | 33.5 µg/mL (≈ 84.1 µM) | > 10 µg/mL | 30.9 µg/mL (≈ 77.6 µM) | > 10 µg/mL | > 10 µg/mL | > 10 µg/mL | > 10 µg/mL | > 10 µg/mL | > 10 µg/mL | > 10 µg/mL | – | MIC (Oryctolagus cuniculus [1]): 40 µg/mL (≈ 100 µM) |
| COc1c(C)c(-c2cn([C@H]3C[C@H](O)[C@@H](CO)O3)c(=O)[nH]c2=O)c(OC)c2ccccc12 | > 100 µg/mL | – | – | > 100 µg/mL | – | – | – | – | – | – | – | – | IC50 (Raji [12]): 55.6 µg/mL (≈ 130 µM) |
| CC1=C(C)C(=O)C(c2cn([C@H]3C[C@H](O)[C@@H](CO)O3)c(=O)[nH]c2=O)=CC1=O | 40.5 µg/mL (≈ 112 µM) | > 100 µg/mL | > 100 µg/mL | 66.8 µg/mL (≈ 184 µM) | > 100 µg/mL | > 100 µg/mL | > 100 µg/mL | 150 µg/mL (≈ 414 µM) | 70 µg/mL (≈ 193 µM) | 70 µg/mL (≈ 193 µM) | 70 µg/mL (≈ 193 µM) | – | MIC (Oryctolagus cuniculus [1]): 200 µg/mL (≈ 552 µM) |
| COc1cc(-c2cn([C@H]3C[C@H](O)[C@@H](CO)O3)c(=O)[nH]c2=O)c(OC)c(C)c1C | > 100 µg/mL | > 100 µg/mL | – | > 100 µg/mL | – | – | – | – | – | – | – | – | – |
| CC1=C(c2cn([C@H]3C[C@H](O)[C@@H](COP(=O)(O)O)O3)c(=O)[nH]c2=O)C(=O)c2ccccc2C1=O | – | – | – | – | – | – | – | – | – | – | – | 610 nM | Ki (Thymidylate synthase [13]): 1900 nM |
| COc1cc(-c2cn([C@H]3C[C@H](O)[C@@H](COP(=O)(O)O)O3)c(=O)[nH]c2=O)c(OC)c(C)c1C | – | – | – | – | – | – | – | – | – | – | – | – | Ki (Thymidylate synthase [15]): 3600 nM |
| COc1c(C)c(-c2cn([C@H]3C[C@H](O)[C@@H](COP(=O)(O)O)O3)c(=O)[nH]c2=O)c(OC)c2ccccc12 | – | – | – | – | – | – | – | – | – | – | – | 2400 nM | – |
| COc1c(C)c(C)c(OC)c(-c2cn([C@H]3C[C@H](O)[C@@H](COP(=O)(O)O)O3)c(=O)[nH]c2=O)c1C | – | – | – | – | – | – | – | – | – | – | – | 1400 nM | – |
| CC1=C(C)C(=O)C(c2cn([C@H]3C[C@H](O)[C@@H](COP(=O)(O)O)O3)c(=O)[nH]c2=O)=CC1=O | – | – | – | – | – | – | – | – | – | – | – | 590 nM | Ki (Thymidylate synthase [13]): 6100 nM |
| CC1=C(C)C(=O)C(c2cn([C@H]3C[C@H](O)[C@@H](COP(=O)(O)O)O3)c(=O)[nH]c2=O)=C(C)C1=O | – | – | – | – | – | – | – | – | – | – | – | 1300 nM | Ki (Thymidylate synthase [13]): 5100 nM |
| O=C1C=CC(=O)C(c2cn([C@H]3C[C@H](O)[C@@H](CO)O3)c(=O)[nH]c2=O)=C1 | 35.7 µg/mL (≈ 107 µM) | > 100 µg/mL | > 200 µg/mL | > 100 µg/mL | 70 µg/mL (≈ 209 µM) | 20 µg/mL (≈ 59.8 µM) | 70 µg/mL (≈ 209 µM) | 20 µg/mL (≈ 59.8 µM) | 150 µg/mL (≈ 449 µM) | 70 µg/mL (≈ 209 µM) | 70 µg/mL (≈ 209 µM) | – | – |
| O=C1C=CC(=O)C(c2cn([C@H]3C[C@H](O)[C@@H](COP(=O)(O)O)O3)c(=O)[nH]c2=O)=C1 | – | – | – | – | – | – | – | – | – | – | – | 2000 nM | – |
| CC1=C(C)C(=O)C(c2cn([C@H]3C[C@H](O)[C@@H](CO)O3)c(=O)[nH]c2=O)=C(C)C1=O | 65.6 µg/mL (≈ 174 µM) | 51.1 µg/mL (≈ 136 µM) | > 100 µg/mL | 29.7 µg/mL (≈ 78.9 µM) | > 200 µg/mL | > 200 µg/mL | > 200 µg/mL | > 200 µg/mL | > 200 µg/mL | > 200 µg/mL | > 200 µg/mL | – | MIC (Oryctolagus cuniculus [1]): > 200 µg/mL |
| COc1c(C)c(C)c(OC)c(-c2cn([C@H]3C[C@H](O)[C@@H](CO)O3)c(=O)[nH]c2=O)c1C | > 100 µg/mL | > 100 µg/mL | – | > 100 µg/mL | – | – | – | – | – | – | – | – | – |
| O=c1[nH]c(=O)n([C@H]2C[C@H](O)[C@@H](CO)O2)cc1Br [BROXURIDINE] | – | – | > 400 µg/mL | – | 2 µg/mL (≈ 6.51 µM) | 0.07 µg/mL (≈ 0.228 µM) | 7 µg/mL (≈ 22.8 µM) | 0.02 µg/mL (≈ 0.0651 µM) | 0.02 µg/mL (≈ 0.0651 µM) | 20 µg/mL (≈ 65.1 µM) | 10 µg/mL (≈ 32.6 µM) | – | MIC (Oryctolagus cuniculus [1]): > 400 µg/mL |
| O=c1[nH]c(=O)n([C@H]2C[C@H](O)[C@@H](CO)O2)cc1I [IDOXURIDINE] | – | – | > 400 µg/mL | – | 0.7 µg/mL (≈ 1.98 µM) | 0.7 µg/mL (≈ 1.98 µM) | 0.7 µg/mL (≈ 1.98 µM) | 0.2 µg/mL (≈ 0.565 µM) | 0.7 µg/mL (≈ 1.98 µM) | 0.7 µg/mL (≈ 1.98 µM) | 1 µg/mL (≈ 2.82 µM) | – | MIC (Oryctolagus cuniculus [16]): > 400 µg/mL |
